Assay results reported in the NIST ThermoML archive (doi:10.1016/j.jct.2016.12.037).

Assay: xn = mol fraction of the nth substance listed
Conditions: Liquid; for viscosity: Concentric cylinders viscometry

CCCC[n+]1ccn(C)c1.O=S(=O)([N-]S(=O)(=O)C(F)(F)F)C(F)(F)F + CCCCn1cc[n+](C)c1.[Cl-]
mass density [kg/m3]
Conditions	x2 = 0	x2 = 0.25	x2 = 0.5	x2 = 0.75
351.9 K, 70000 kPa, Bellows volumetry	–	–	1304.5	1207.5
351.9 K, 80000 kPa, Bellows volumetry	–	1384.5	1309.5	1211.8
351.9 K, 90000 kPa, Bellows volumetry	–	1389.8	1314.2	1215.7
351.9 K, 100000 kPa, Bellows volumetry	–	1394.9	1318.9	1219.6
351.9 K, 110000 kPa, Bellows volumetry	–	1400	1323.3	1223.4
351.9 K, 120000 kPa, Bellows volumetry	–	1404.9	1327.8	1227.2
351.9 K, 130000 kPa, Bellows volumetry	–	1409.6	1332	1230.8
351.9 K, 140000 kPa, Bellows volumetry	–	1414.2	1336.1	1234.5
351.9 K, 150000 kPa, Bellows volumetry	–	1418.7	1340.3	1237.9
351.9 K, 160000 kPa, Bellows volumetry	–	1423.2	1344.2	1241.4
351.9 K, 170000 kPa, Bellows volumetry	–	1427.5	1348	1244.7
351.9 K, 180000 kPa, Bellows volumetry	–	1431.7	1351.8	1247.9
351.9 K, 190000 kPa, Bellows volumetry	–	1435.8	1355.6	1251.2
351.9 K, 200000 kPa, Bellows volumetry	–	1439.9	1359.2	1254.3
353.15 K, 100 kPa, Vibrating tube method	1384.8	1331.1	1263	1173.6
363.15 K, 100 kPa, Vibrating tube method	1375.6	1322.6	1255.4	1167.1
372.1 K, 10000 kPa, Bellows volumetry	–	1322.9	1255	1165.9
372.1 K, 20000 kPa, Bellows volumetry	–	1330.9	1261.8	1171.6
372.1 K, 30000 kPa, Bellows volumetry	–	1338.3	1268.4	1176.9
372.1 K, 40000 kPa, Bellows volumetry	–	1345.3	1274.6	1181.9
372.1 K, 50000 kPa, Bellows volumetry	–	1352	1280.4	1186.7
372.1 K, 60000 kPa, Bellows volumetry	–	1358.3	1286	1191.4
372.1 K, 70000 kPa, Bellows volumetry	–	1364.4	1291.3	1195.9
372.1 K, 80000 kPa, Bellows volumetry	–	1370.4	1296.5	1200.3
372.1 K, 90000 kPa, Bellows volumetry	–	1375.8	1301.4	1204.4
372.1 K, 100000 kPa, Bellows volumetry	–	1381.2	1306.1	1208.5
372.1 K, 110000 kPa, Bellows volumetry	–	1386.4	1310.9	1212.5
372.1 K, 120000 kPa, Bellows volumetry	–	1391.5	1315.4	1216.3
372.1 K, 130000 kPa, Bellows volumetry	–	1396.2	1319.8	1220
372.1 K, 140000 kPa, Bellows volumetry	–	1401.1	1324.2	1223.7
372.1 K, 150000 kPa, Bellows volumetry	–	1405.7	1328.4	1227.3
372.1 K, 160000 kPa, Bellows volumetry	–	1410.3	1332.5	1230.8
372.1 K, 170000 kPa, Bellows volumetry	–	1414.7	1336.4	1234.1
372.1 K, 180000 kPa, Bellows volumetry	–	1419	1340.3	1237.6
372.1 K, 190000 kPa, Bellows volumetry	–	1423.3	1344.1	1240.8
372.1 K, 200000 kPa, Bellows volumetry	–	1427.6	1347.9	1244.1
373.15 K, 100 kPa, Vibrating tube method	1366.7	1314	1247.5	1160.2
392.3 K, 10000 kPa, Bellows volumetry	–	1306.7	1240.1	1152.9
392.3 K, 20000 kPa, Bellows volumetry	–	1315.1	1247.4	1158.8
392.3 K, 30000 kPa, Bellows volumetry	–	1323.1	1254.3	1164.4
392.3 K, 40000 kPa, Bellows volumetry	–	1330.5	1260.9	1169.7
392.3 K, 50000 kPa, Bellows volumetry	–	1337.5	1266.9	1174.8
392.3 K, 60000 kPa, Bellows volumetry	–	1344.2	1272.8	1179.6
392.3 K, 70000 kPa, Bellows volumetry	–	1350.5	1278.4	1184.3
392.3 K, 80000 kPa, Bellows volumetry	–	1356.6	1283.8	1188.8
392.3 K, 90000 kPa, Bellows volumetry	–	1362.4	1288.8	1193.1
392.3 K, 100000 kPa, Bellows volumetry	–	1368	1293.8	1197.3
392.3 K, 110000 kPa, Bellows volumetry	–	1373.3	1298.7	1201.5
392.3 K, 120000 kPa, Bellows volumetry	–	1378.6	1303.4	1205.5
392.3 K, 130000 kPa, Bellows volumetry	–	1383.7	1308	1209.3
392.3 K, 140000 kPa, Bellows volumetry	–	1388.7	1312.4	1213.1
392.3 K, 150000 kPa, Bellows volumetry	–	1393.5	1316.8	1216.8
392.3 K, 160000 kPa, Bellows volumetry	–	1398.2	1320.9	1220.4
392.3 K, 170000 kPa, Bellows volumetry	–	1402.8	1325.1	1224
392.3 K, 180000 kPa, Bellows volumetry	–	1407.1	1329.2	1227.4
392.3 K, 190000 kPa, Bellows volumetry	–	1411.5	1333	1230.8
392.3 K, 200000 kPa, Bellows volumetry	–	1415.9	1336.9	1234.2

viscosity [mPa·s], 100 kPa
Conditions	x2 = 0	x2 = 0.25	x2 = 0.5	x2 = 0.75
353.15 K	9.562	15.34	27.82	58.87
363.15 K	7.788	12.03	20.61	40.11
373.15 K	6.469	9.638	15.7	28.43
